Results: patent US20120095022A1, “DERIVATIVES OF 10-AMINO-1,2,3,4-TETRAHYDROPYRIDO[2,1-A]ISOINDOL-6(10BH)-ONES, METHOD FOR PREPARATION THEREOF AND THERAPEUTIC USES THEREOF” (UNIVERSITE D'ORLEANS, priority 2009, published 2012)

Key:
MDA-MB 231 (breast) = experiment: Cytotoxicity on human cells, automated nuclei counting: MDA-MB 231; assay type: cell-based; conditions: MDA-MB 231 cells, exposed 24 h to 48 h, 0.1 to 25 μM
In short: (§1)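 Cells are seeded at 4.10^3 per well and left 24 hours to bind and grow before treatment with rising concentrations of each molecule. Medium is DMEM or RPMI supplemented with 10% fetal calf serum and antibiotics, at 37° C with 5% CO2; DMSO controls stay at or below 1%.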

Huh7 (liver) = experiment: Cytotoxicity on human cells, automated nuclei counting: Huh7; assay type: cell-based; conditions: Huh-7, exposed 24 h to 48 h, 0.1 to 25 μM
In short: as §1

CDK5/D25 = target: T1, CDK5/D25 (Homo sapiens, UniProt Q00535); experiment: CDK5 kinase inhibition (33P-ATP, histone H1); assay type: biochemical; conditions: buffer C, 30° C., 15 μM ATP, read-out: IC50 μM Kinases CDK5
T1 construct: made in house
T1 sequence (Q00535 whole entry): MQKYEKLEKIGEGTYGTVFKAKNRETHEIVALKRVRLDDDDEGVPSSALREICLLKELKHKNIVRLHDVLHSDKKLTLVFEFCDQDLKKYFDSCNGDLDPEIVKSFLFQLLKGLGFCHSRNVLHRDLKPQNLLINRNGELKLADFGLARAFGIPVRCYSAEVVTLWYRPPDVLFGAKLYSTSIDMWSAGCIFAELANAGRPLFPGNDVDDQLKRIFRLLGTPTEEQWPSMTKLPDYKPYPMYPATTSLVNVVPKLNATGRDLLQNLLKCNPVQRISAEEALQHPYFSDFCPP
T1 sequence (Q15078 99-307 partner limits assumed): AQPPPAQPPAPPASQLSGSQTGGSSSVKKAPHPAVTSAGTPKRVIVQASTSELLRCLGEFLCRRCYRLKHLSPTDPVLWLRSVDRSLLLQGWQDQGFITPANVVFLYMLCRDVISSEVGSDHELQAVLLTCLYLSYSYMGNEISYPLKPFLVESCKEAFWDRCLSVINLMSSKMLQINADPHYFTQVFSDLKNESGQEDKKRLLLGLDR
In short: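 Kinase reactions ran in buffer C (25 mM Mops pH 7.2, 15 mM MgCl2, 1 mM DTT, phosphatase inhibitors) with [33P]-ATP for 30 min at 30° C. Phosphorylated substrate was captured on P81 phosphocellulose filters, washed in phosphoric acid and counted by scintillation.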

GSK-3αβ = experiment: GSK-3 kinase inhibition (GS-1 substrate); conditions: read-out: IC50 μM Kinases GSK3, buffer A, 30° C., 15 μM ATP
CDK1/cyclin B = CDK1/cyclin B kinase inhibition (33P-ATP, histone H1); assay type: biochemical, sea star; conditions: buffer C, 30° C., 15 μM ATP, read-out: IC50 μM Kinases CDK1
Method: The protein kinase inhibition activities of the compounds of the invention are tested according to the following general procedure:
Buffer C: 60 mM β-glycerophosphate, 15 mM p-nitrophenyl-phosphate, 25 mM Mops (pH 7.2), 5 mM EGTA, 15 mM mgCl2, 1 mM DTT, 1 mM sodium vanadate and 1 mM phenylphosphate.
The controls were made with suitable dilutions of DMSO.
ATP (3.000 Ci/mmol.; 10 mCi/mL) in a final volume of 30 μL. After 30 mins of incubation at 30° C., 25 μL of supernatant aliquots were deposited on phosphocellulose Whatman P81 paper pieces of 2.5×3 cm, and after 20 seconds, the filters were washed five times (for at least 5 minutes each time) in a solution of 10 mL of phosphoric acid/1 litre of water. The wet filters were counted in the presence of 1 mL of scintillation fluid ACS (Amersham).

fibroblast = experiment: Cytotoxicity on human cells, automated nuclei counting: fibroblast; assay type: cell-based; conditions: exposed 24 h to 48 h, 0.1 to 25 μM
In short: as §1

HCT 116 (colon) = experiment: Cytotoxicity on human cells, automated nuclei counting: HCT 116; assay type: cell-based; conditions: HCT 116 cells, exposed 24 h to 48 h, 0.1 to 25 μM
In short: as §1

DYRK1A = DYRK1A (Homo sapiens, UniProt Q13627); experiment: DYRK1A kinase inhibition (Woodtide substrate)
NCI (lung) = experiment: Cytotoxicity on human cells, automated nuclei counting: NCI; assay type: cell-based; conditions: exposed 24 h to 48 h, 0.1 to 25 μM
In short: as §1

PC3 (prostate) = experiment: Cytotoxicity on human cells, automated nuclei counting: PC3; assay type: cell-based; conditions: PC-3, exposed 24 h to 48 h, 0.1 to 25 μM
In short: as §1

Caco (colon) = experiment: Cytotoxicity on human cells, automated nuclei counting: Caco; assay type: cell-based; conditions: exposed 24 h to 48 h, 0.1 to 25 μM
In short: as §1

O=C(Nc1ccccn1)Nc1cccc2c1C1CC3(CCN1C2=O)SCCS3 (stereo not drawn) [Compound 16, 1-(6′-oxo-3′,4′,6′,10b′-tetrahydro-1′H-spiro[[1,3]dithiolane-2,2′-pyrido[2,1-a]isoindole]-10′-yl)-3-(pyridin-2-yl)urea]
melting point: 242 °C
IC50 (MDA-MB 231 (breast)): 20 µM
IC50 (Huh7 (liver)): 15 µM
IC50 (CDK5/D25): 0.24 µM
IC50 (GSK-3αβ): 0.033 µM
IC50 (CDK1/cyclin B): 0.22 µM
IC50 (fibroblast): > 25 µM
IC50 (HCT 116 (colon)): 10 µM
IC50 (DYRK1A): > 10000 nM
IC50 (NCI (lung)): 25 µM
IC50 (PC3 (prostate)): 6 µM
IC50 (Caco (colon)): 15 µM

O=C(Nc1cnccn1)Nc1cccc2c1C1CC3(CCN1C2=O)SCCS3 (stereo not drawn) [Compound 17, 1-(6′-Oxo-3′,4′,6′,10b′-tetrahydro-1′H-spiro[[1,3]dithiolane-2,2′-pyrido[2,1-a]isoindole]-10′-yl)-3-(pyrazin-2-yl)urea]
melting point: 236 °C
IC50 (MDA-MB 231 (breast)): 0.15 µM
IC50 (Huh7 (liver)): 0.1 µM
IC50 (CDK5/D25): 0.15 µM
IC50 (GSK-3αβ): 0.044 µM
IC50 (CDK1/cyclin B): 0.13 µM
IC50 (fibroblast): 0.8 µM
IC50 (HCT 116 (colon)): 0.1 µM
IC50 (DYRK1A): > 10000 nM
IC50 (NCI (lung)): 0.4 µM
IC50 (PC3 (prostate)): 0.6 µM
IC50 (Caco (colon)): 0.5 µM

COc1ccc(NC(=O)Nc2cccc3c2C2CCCCN2C3=O)cn1 (stereo not drawn) [Compound 96, N-(6-Methoxypyridin-3-yl)-M-(6-oxo-1,2,3,4,6,10b-hexahydropyrido[2,1-a]isoindol-10-yl)urea]
melting point: 175 °C
IC50 (MDA-MB 231 (breast)): 0.2 µM
IC50 (Huh7 (liver)): 0.5 µM
IC50 (CDK5/D25): 1.6 µM
IC50 (GSK-3αβ): 0.23 µM
IC50 (CDK1/cyclin B): 25 µM
IC50 (fibroblast): 1.5 µM
IC50 (HCT 116 (colon)): 0.2 µM
IC50 (NCI (lung)): 0.6 µM
IC50 (PC3 (prostate)): 0.6 µM
IC50 (Caco (colon)): 0.8 µM

O=C(Nc1cc(-c2ccccc2)on1)Nc1cccc2c1C1CCCCN1C2=O (stereo not drawn) [Compound 25, 1-(6-oxo-1,2,3,4,6,10b-hexahydropyrido[2,1-a]isoindol-10-yl)-3-(5-phenyl-isoxazol-3-yl)urea]
melting point: 248 °C
IC50 (MDA-MB 231 (breast)): 0.2 µM
IC50 (Huh7 (liver)): 0.25 µM
IC50 (CDK5/D25): 1.5 µM
IC50 (GSK-3αβ): 0.27 µM
IC50 (CDK1/cyclin B): > 10 µM
IC50 (fibroblast): 0.1 µM
IC50 (HCT 116 (colon)): 0.03 µM
IC50 (DYRK1A): > 10000 nM
IC50 (NCI (lung)): 1.5 µM
IC50 (PC3 (prostate)): 0.1 µM
IC50 (Caco (colon)): 0.1 µM

O=C1c2cccc(NC(=S)Nc3cnccn3)c2C2CC3(CCN12)SCCS3 (stereo not drawn) [Compound 69, 1-(6′-Oxo-3′,4′,6′,10b′-tetrahydro-1′H-spiro[[1,3]dithiolane-2,2′-pyrido[2,1-a]isoindole]-10′-yl)-3-(pyrazin-2-yl)thiourea]
melting point: 128 °C
IC50 (MDA-MB 231 (breast)): 10 µM
IC50 (Huh7 (liver)): > 25 µM
IC50 (CDK5/D25): > 10 µM
IC50 (GSK-3αβ): > 10 µM
IC50 (fibroblast): 25 µM
IC50 (HCT 116 (colon)): 15 µM
IC50 (DYRK1A): > 10000 nM
IC50 (NCI (lung)): > 25 µM
IC50 (PC3 (prostate)): > 25 µM
IC50 (Caco (colon)): 4 µM

O=C(Nc1ncccn1)Nc1cccc2c1C1CCCCN1C2=O (stereo not drawn) [Compound 42, 1-(6-oxo-1,2,3,4,6,10b-hexahydro-pyrido[2,1-a]isoindol-10-yl)-3-pyrimidin-2-yl-urea]
melting point: 232 °C
IC50 (MDA-MB 231 (breast)): 4 µM
IC50 (Huh7 (liver)): 0.6 µM
IC50 (CDK5/D25): > 10 µM
IC50 (GSK-3αβ): 0.75 µM
IC50 (fibroblast): 2.5 µM
IC50 (HCT 116 (colon)): 4 µM
IC50 (DYRK1A): > 10000 nM
IC50 (NCI (lung)): 8 µM
IC50 (PC3 (prostate)): 2 µM
IC50 (Caco (colon)): 2 µM

O=C(Nc1cnccn1)Nc1cccc2c1C1C[C@@H](O)CCN1C2=O (stereo partly drawn) [Compound 105, 1-((2S)-2-Hydroxy-6-oxo-1,2,3,4,6,10b-hexahydropyrido[2,1-a]isoindol-10-yl)-3-(pyrazin-2-yl)urea]
melting point: 250 °C
IC50 (MDA-MB 231 (breast)): 25 µM
IC50 (Huh7 (liver)): 4 µM
IC50 (CDK5/D25): 0.084 µM
IC50 (GSK-3αβ): 0.032 µM
IC50 (fibroblast): 12 µM
IC50 (HCT 116 (colon)): 8 µM
IC50 (DYRK1A): > 10000 nM
IC50 (NCI (lung)): 8 µM
IC50 (PC3 (prostate)): 20 µM
IC50 (Caco (colon)): > 25 µM

COc1cc(NC(=O)Nc2cccc3c2C2CC(OC)CCN2C3=O)nc2ccccc12 (stereo not drawn) [Compound 55, 1-(2-Methoxy-6-oxo-1,2,3,4,6,10b-hexahydropyrido[2,1-a]isoindol-10-yl)-3-(4-methoxyquinolin-2-yl)urea]
melting point: > 260 °C
IC50 (MDA-MB 231 (breast)): 15 µM
IC50 (Huh7 (liver)): 3 µM
IC50 (CDK5/D25): 8.5 µM
IC50 (GSK-3αβ): 0.18 µM
IC50 (fibroblast): 10 µM
IC50 (HCT 116 (colon)): 2.5 µM
IC50 (DYRK1A): > 10000 nM
IC50 (NCI (lung)): 5 µM
IC50 (PC3 (prostate)): 3 µM
IC50 (Caco (colon)): 10 µM

O=C(Nc1cccc2c1C1CCCCN1C2=O)Nc1ncccc1Br (stereo not drawn) [Compound 75, 1-(3-Bromopyridin-2-yl)-3-(6-oxo-1,2,3,4,6,10b-hexahydropyrido[2,1-a]isoindol-10-yl)urea]
melting point: 220 °C
IC50 (MDA-MB 231 (breast)): 1.5 µM
IC50 (Huh7 (liver)): 0.25 µM
IC50 (CDK5/D25): 0.48 µM
IC50 (GSK-3αβ): 0.17 µM
IC50 (fibroblast): 0.6 µM
IC50 (HCT 116 (colon)): 0.4 µM
IC50 (DYRK1A): 3000 nM
IC50 (NCI (lung)): 2 µM
IC50 (PC3 (prostate)): 7 µM
IC50 (Caco (colon)): 5 µM
